# ChEMBL document CHEMBL5393446, “3-(1-oxo-5-(piperidin-4-yl)isoindolin-2-yl)piperidine-2,6-dione derivatives and uses thereof” (2022)
# Target: Zinc finger protein Helios (Homo sapiens) (UniProt Q9UKS7)
# Test: Induction of IKZF2 degradation in human GripTite 293 MSR cells at 30 uM incubated for 24 hrs by PathHunter assay relative to control
# Assay type: cell-based
# Chain of Zinc finger protein Helios (Homo sapiens) (Q9UKS7 whole entry): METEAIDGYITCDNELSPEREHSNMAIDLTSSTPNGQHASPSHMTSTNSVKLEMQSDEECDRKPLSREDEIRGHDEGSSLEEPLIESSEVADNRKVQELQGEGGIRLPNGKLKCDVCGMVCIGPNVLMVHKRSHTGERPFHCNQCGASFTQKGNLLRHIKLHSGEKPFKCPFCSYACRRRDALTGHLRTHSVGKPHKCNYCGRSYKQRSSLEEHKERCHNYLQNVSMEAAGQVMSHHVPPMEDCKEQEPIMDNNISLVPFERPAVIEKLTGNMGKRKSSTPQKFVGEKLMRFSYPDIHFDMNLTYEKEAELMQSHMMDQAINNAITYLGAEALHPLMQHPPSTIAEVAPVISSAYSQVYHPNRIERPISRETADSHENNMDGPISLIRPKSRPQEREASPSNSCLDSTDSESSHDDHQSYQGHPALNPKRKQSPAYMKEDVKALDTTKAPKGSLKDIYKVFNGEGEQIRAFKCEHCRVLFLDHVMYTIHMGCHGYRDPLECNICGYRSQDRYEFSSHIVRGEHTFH
row,Activity [%],Compound
1,30,CC1CC(c2ccc3c(c2)CN(C2CCC(=O)NC2=O)C3=O)CC(C)N1 (configuration not stated)
2,35,CC1CC(c2ccc3c(c2)CN(C2CCC(=O)NC2=O)C3=O)CC(C)N1Cc1ccccc1 (configuration not stated)
